Entries after “also recorded” stand apart in the source; their conditions may differ.
Columns and labels:
[1] = test system: NCI-H929 multiple myeloma cell line; assay: Cell viability MTS assay, NCI-H929; assay type: cell-based; settings: Homo sapiens, 48 hours, read-out: EC50, cell killing in NCI-H929
Protocol: (§1) The lymphoid derived cell lines DHL-6 and DHL-10 were obtained from Anthony Letai of the Dana Father Cancer Research Institute, Boston, Mass. The […] derived cell line NCP-H929 was obtained irons, the NIH/NCI cell repository. AML-3 cells were obtained from Dr. Michael Andreef (MD Anderson Cancer Center, Houston, Tex.). Cells were grown in RPMI 1640 medium (GIBCO-BRL) supplemented with Pen-strep-glutamine (Gibco 10378) and 5% fetal bovine serum.
(§2) Cells were expanded in tissue culture in appropriate media and then subcultured into 96-well plates at a seeding density of 20,000-40,000 cells per well, and cells were treated with one or more compounds that were titrated info appropriate medium with FCS. Cell lines were treated with compound A at concentrations ranging from 25 μM to 25 nM. The BH3-mimetic obatoclax (Nguyen M et al. (2007), Proc. Natl. Acad. Sci. USA 104:19512-19517) was also tested against the SUDHL-6, SUDHL-10, and NCI-H929 cell lines. Cells were treated for 48 hours and scored for viability using the MTS assay (Promega). Growth inhibition was indicated as a percentage of control cell growth. Growth was determined by measuring the A570 (control cells)—A570 (treated cells)/A570 (control cells). EC50 values were calculated using Graphpad Prizm software.

[2] = test system: AML-3 acute myelogenous leukemia cell line; assay: Cell viability MTS assay, AML-3; assay type: cell-based; settings: Homo sapiens, AML3, 48 hours, read-out: EC50, cell killing in AML-3
Protocol: as §1, §2

SUDHL-10 cell line = assay: Cell viability MTS assay, SUDHL-10 (Bax/Bak deficient); assay type: cell-based, human
Protocol: as §1, §2

[3] = test system: mitochondria in semi-permeabilized SUDHL-6 cells; assay: In situ mitochondrial assay (cytochrome c release), SUDHL-6; assay type: cell-based; settings: SUDHL-6 (DHL-6), Bax/Bak functional, 10 uM
Description: (§3) The on-target activity of compound II-19 was validated. Changes in mitochondrial integrity were observed utilizing anti-cytochrome c conjugated to Alcxa488 (BD). When the mitochondria are intact, they retain cytochrome c and have bright, punctate staining with the antibody whereas cells with compromised mitochondrial integrity will lose cytochrome c and will not stain with the antibody. This can be observed by microscopy as well as measured by a shift in fluorescence on the FL1 channel of a flow cytometer.
(§4) The selective response of mitochondria in semi-permeabilized cell lines to the compounds was observed. The assay was adapted from (Campos et al. (2006) Cytometry Part A. 69(A):515-523).
(§5) Suspension cell lines SUDHL10 and SUDHL6 were grown in RPMI, washed once in 1xPBS and re-suspended at a concentration of 2e6/ml in assay buffer with 0.0025% Digitonin. Assay buffer; 300 mM Trehalose, 10 mM HEPES-KOH pH 7.7, 80 mM KCl, 1 mM EGTA, 1 mM EDTA, 0.1% BSA, 5 mM Succinate. Cells are incubated with test and control compounds at 10^6 cells/treatment for 1 hour at room temperature. […] Cytochrome c loss was measured by microscopy. At least 100 cells per treatment were counted and scored as positive for cytochrome c loss if they lacked staining. In both methods DMSO was calculated as 0% cytochrome c loss and the Bim response for DHL6 was used to determine 100% cytochrome c loss.

[4] = test system: mitochondria in semi-permeabilized SUDHL-10 cells; assay: In situ mitochondrial assay (cytochrome c release), SUDHL-10; assay type: cell-based; settings: SUDHL-10 (DHL-10), Bax/Bak deficient, 10 uM
Description: as §3, §4, §5

NCI H929 tumors = assay: NCI H929 human myeloma xenograft model in mice; assay type: in vivo, mouse; settings: vehicle 2300 mm^3
Protocol: Cell Culture: Tumor cell line NCI H929 was cultured according to ATCC recommendations in […] containing 10% fetal bovine serum and pen-strep. On the day of implantation, cells were washed 1× with phosphate buffered saline (PBS) and harvested via centrifugation. Cells were pelleted (5 min at 1000 rpm, RT) then resuspended in serum-free matrigel and kept on ice until implantation.
Tumor Cell Implantation: The cell line was implanted via subcutaneous injection on the right rear flank at a volume of 200 μl containing 3×10^7 cells per mouse; the injection site was cleaned using alcohol before and after injection to prevent any infection.
Tumor Assessment: Beginning 1 week post cell implantation all animals were weighed and tagged and tumors were measured and body weights taken 3 times weekly (length×width×height) on Monday, Wednesday, and Friday for the duration of study. Once an average tumor volume of 100-200 mm^3 was reached, animals were randomized and placed into 4 treatment groups of a minimum of 10 mice per group based on tumor size. Randomization was determined by tumor volume (length×width×height)[…] for all of the mice and average volume was calculated using a average function in Excel (Microsoft Professional).
Treatment: The study involved 4 groups of 10 animals per group. Animals in all dose groups were weighed on days of tumor measurement. All doses were administered i.p. at 10 mL/kg. The Bortezormib (1 mg/kg) group was once every 3 days for 15 days. The mice receiving vehicle and compound II-19 were dosed every second day. Compound II-19 was formulated in 1% DMSO, 10 mM Tris pH 8, 30% hydroxypropyl-beta-cyclodextrin; this vehicle was used as the “vehicle” control. Bortezomib was formulated in 30% propylene glycol, 5% Tween 80, 3.3% dextrose in water, pH 4, 1% DMSO.

COC(=O)c1ccc(O)c2nc3c(C=O)c(O)c(-c4c(O)c(C=O)c5nc6c(O)ccc(C(=O)OC)c6nc5c4O)c(O)c3nc12 [II-19, dimethyl 4,4′-diformyl-1,1′,3,3′,6,6′-hexahydroxy-[2,2′-biphenazine]-9,9′-dicarboxylate]
EC50 [1]: 8 µM | EC50 [2]: 10 µM | EC50 (SUDHL-10 cell line; Homo sapiens, SU-DHL10, 48 hours, MTS assay, Bax/Bak deficient cell line, read-out: EC50, cell killing in SUDHL-10): > 20 µM | activity against the Bax/Bak deficient cell line SUDHL-10 (in words) (SUDHL-10 cell line; cell killing, FIG. 4d): absence of activity | cytochrome c release from mitochondria [3]: causes release of cytochrome c; also recorded: direct activity | cytochrome c release from mitochondria [4]: but not BAX/BAK-deficient SUDHL-10 cell line; also recorded: lack of activity | average tumor size at the end of the study (NCI H929 tumors; 1 mg/kg i.p. every second day): 1740 mm^3 | average tumor size at the end of the study (NCI H929 tumors; 3 mg/kg i.p. every second day): 1600 mm^3

— patent US9351971B2, “Substituted 2,2′-biphenazines for treating diseases” (Eutropics Pharmaceuticals, Inc., priority 2010, dated 2016)
